A short description of data set [1]: Oral bioavailability in rat at 1 mg/kg administered as suspension. The format is ADME, organism-based. The settings on record: in vivo.
Data set [2] in a line: Dose normalized AUC in rat at 1 mg/kg, po administered as suspension. Type of data set: ADME, organism-based. Conditions: in vivo.
Data set [3] can be described thus: in vivo. Conditions: rat, iv, 1 mg/kg.
Data set [4] in a line: in vitro. The settings on record: human, liver microsomes.
Data set [5] is described as follows: in vitro. Conditions: rat, liver microsomes.
Data set [6] in a line: in vitro. The settings on record: human, hepatocytes.
The nature of data set [7]: in vitro. Conditions: rat, hepatocytes.
A short description of data set [8]: in vitro. The settings on record: dog, MDCK.
A short description of data set [9]: Dose normalized AUC in rat at 5 mg/kg, po administered as suspension. The format is ADME, organism-based. Conditions: in vivo.
Data set [10] is described as follows: in vivo. Conditions: rat, po, 5 mg/kg.

Molecule `CC1=C(c2cccc(O)c2)[C@H](c2ccc(OCCN3CC(CF)C3)cc2)Oc2c(O)cccc21` displayed a bioavailability in [1] of 30%. This molecule showed an AUC/dose in [2] of 0.43 µM·h. In the data set “in vivo [3]”, this molecule had a clearance of 18 mL/min/kg. Also, the CLhep predicted was 9 mL/min/kg in the data set “in vitro [4]”, 43 mL/min/kg in the data set “in vitro [5]”, 13 mL/min/kg in the data set “in vitro [6]” and 44 mL/min/kg in the data set “in vitro [7]”. For the same molecule, the Papp A→B in the data set “in vitro [8]” turned out to be 2.4 ×10⁻⁶ cm/s.

Turning to `CCC1=C(c2cccc(O)c2)[C@H](c2ccc(OCCN3CC(CF)C3)cc2)Oc2ccc(O)cc21`, the CLhep predicted in the data set “in vitro [4]” is 12 mL/min/kg; in the data set “in vitro [5]”, 39 mL/min/kg; in “in vitro [6]”, 15 mL/min/kg; in the data set “in vitro [7]” it was 40 mL/min/kg.

In data set [9], `CC1=C(c2cccc(O)c2)[C@H](c2ccc(OCCN3CC(CF)C3)cc2)Oc2ccc(O)cc21` had an AUC/dose of 0.04 µM·h. In addition, the clearance in the data set “in vivo [3]” is 100 mL/min/kg. This molecule also registered a bioavailability in “in vivo [10]” of 10%. In addition, the CLhep predicted in the data set “in vitro [4]” was 12 mL/min/kg; in “in vitro [5]” it was 45 to 46 mL/min/kg; in “in vitro [6]”, 16 mL/min/kg; in the data set “in vitro [7]”, 45 to 46 mL/min/kg. The molecule also came in with a Papp A→B in “in vitro [8]” of 4.6 ×10⁻⁶ cm/s.

Consider `CC1=C(c2ccc(F)cc2)[C@H](c2ccc(OCCN3CC(CF)C3)cc2)Oc2cc(F)c(O)cc21`, for which the CLhep predicted in the data set “in vitro [4]” is 8 mL/min/kg; in the data set “in vitro [5]” it was 20 mL/min/kg; in the data set “in vitro [6]”, 15 mL/min/kg; in the data set “in vitro [7]”, 28 mL/min/kg.

For the molecule `CC1=C(c2ccc(F)cc2)[C@H](c2ccc(OCCN3CC(CF)C3)cc2)Oc2c(O)cccc21`, the CLhep predicted in “in vitro [4]” was 9 mL/min/kg; in “in vitro [5]” it was 27 mL/min/kg.

Regarding `CC1=C(c2ccc(F)cc2)[C@H](c2ccc(OCCN3CC(CF)C3)cc2)Oc2ccc(O)cc21`, the CLhep predicted in the data set “in vitro [4]” is 10 mL/min/kg; in the data set “in vitro [5]” it was 28 mL/min/kg; in the data set “in vitro [6]”, 14 mL/min/kg; in the data set “in vitro [7]” it was 31 mL/min/kg.

Regarding `Oc1cccc(C2=Cc3cc(O)ccc3O[C@H]2c2ccc(OCCN3CC(CF)C3)cc2)c1`, the CLhep predicted was 12 mL/min/kg in “in vitro [4]”, 36 mL/min/kg in the data set “in vitro [5]”, 17 mL/min/kg in the data set “in vitro [6]” and 41 mL/min/kg in the data set “in vitro [7]”.
